According to paper PMC8069166, “Identification of a Prenyl Chalcone as a Competitive Lipoxygenase Inhibitor: Screening, Biochemical Evaluation and Molecular Modeling Studies” (Molecules, 2021):
“Also recorded” adds a separate entry of the source. Like-named read-outs stand apart in the source and are kept apart here. Blank lines part the entries; values can stand above or below the molecule they belong to.

What was measured:
LOX-1 [1] = target: T1, LOX-1 (Glycine max, UniProt P08170); experiment: Oxygen consumption by the catalytic activity of LOX (polarography, O2-selective electrode); format: biochemical, soybean (Glycine max); settings: compound at 10 µM, 25 °C
T1 sequence (P08170 1-839): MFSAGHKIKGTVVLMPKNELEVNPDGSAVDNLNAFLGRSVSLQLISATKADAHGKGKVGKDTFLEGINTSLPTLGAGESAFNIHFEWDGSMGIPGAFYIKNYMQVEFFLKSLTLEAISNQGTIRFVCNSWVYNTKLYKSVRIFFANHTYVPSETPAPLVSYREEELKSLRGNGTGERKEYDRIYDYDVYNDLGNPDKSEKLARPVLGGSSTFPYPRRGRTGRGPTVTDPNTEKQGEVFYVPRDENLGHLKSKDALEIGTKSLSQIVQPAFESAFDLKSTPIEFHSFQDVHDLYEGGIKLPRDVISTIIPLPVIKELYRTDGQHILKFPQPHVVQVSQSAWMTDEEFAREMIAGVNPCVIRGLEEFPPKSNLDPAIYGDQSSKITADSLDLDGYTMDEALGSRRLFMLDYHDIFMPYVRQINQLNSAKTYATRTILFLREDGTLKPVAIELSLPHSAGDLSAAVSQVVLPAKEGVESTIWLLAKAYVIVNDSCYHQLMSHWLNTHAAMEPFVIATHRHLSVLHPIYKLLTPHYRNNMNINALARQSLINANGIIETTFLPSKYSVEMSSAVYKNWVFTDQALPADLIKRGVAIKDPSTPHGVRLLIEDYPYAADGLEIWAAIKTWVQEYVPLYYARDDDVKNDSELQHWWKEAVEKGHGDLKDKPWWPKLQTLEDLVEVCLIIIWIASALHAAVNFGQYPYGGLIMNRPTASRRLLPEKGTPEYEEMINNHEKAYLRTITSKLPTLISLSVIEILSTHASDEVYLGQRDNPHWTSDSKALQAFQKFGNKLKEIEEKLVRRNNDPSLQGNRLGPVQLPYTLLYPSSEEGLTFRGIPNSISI
Text: A polarography-based assay was used to evaluate the rate of the oxygen consumption during LOX-1 inhibition, during which oxygen consumption is associated with the formation of a hydroperoxyl group [28]. In order to evaluate the decrease in oxygen consumption upon LOX-1 inhibition by the prenyl chalcone 6, an O2-selective electrode coupled to an oxygen monitoring probe was employed. […] The oxygen consumption was monitored using an O2-selective electrode coupled to a YSI 5300 Oxygen Monitor (Yellow Springs, OH, USA) at 25 °C. The reactions were initiated by adding O2 (100 μM), followed by the addition of LOX (20 nM) in 0.1 M Phosphate buffered saline (PBS), with pH 7.4 at 25 °C and the compounds being tested [32].

[2] = cited from earlier work
[3] = target: T2, soybean lipoxygenase-1 (LOX-1) (Glycine max, UniProt P08170); experiment: LOX-1 inhibition, spectrophotometric assay of conjugated diene formed by linoleic acid oxidation; format: biochemical
T2 construct: purchased Sigma-Aldrich, Brazil
T2 sequence (P08170 1-839): T1 sequence (P08170 1-839)
Protocol: For the in vitro screening to identify the inhibitors of the enzymatic activity of LOX-1, a spectrophotometric assay was employed in order to measure the conjugated diene formed by linoleic acid oxidation. Soybean LOX-1, which converts linoleic acid to 13-hydroperoxylinoleic acid, is inhibited by NSAIDs in a qualitatively similar way to that of the rat mast cell line 5-LOX, and it may be used as a reliable screening target for this activity. The screening was performed with compounds from Brazilian biodiversity (NuBBEDB) and synthetic derivatives previously synthesized by using natural products as models. In this context, a variety of natural products were evaluated, such as triterpenes, chalcones, casearins, alkaloids, guanidines, and flavonoids.
(§1) The ability of chalcones 1–6 to act as LOX-1 inhibitors was evaluated according to a method from Ha et al. (2004). Initially, 2.910 mL Tris-HCl buffer ([…] (pH 8.0), Sigma-Aldrich, Brazil) was added to a quartz cuvette, followed by the addition of 25 μL LOX-1 (final concentration 1 μM, Sigma-Aldrich, Brazil) and 10 μL of the compounds tested (the final concentration ranged from 1 to 20 μM). The solution was incubated for 5 min at 25 °C. The reaction was started with the addition of linoleic acid (55 μL, 1 mM, Sigma-Aldrich, Brazil), and the LOX-1 activity was monitored at λ = 221 nm, pH 8.0, and 25 °C by an absorbance spectrophotometer in UV-Vis (Perkin Elmer Lambda 22, Waltham, MA, USA). For the determination of KM, varying substrate concentrations were used (linoleic acid, 13.7–91.7 µM) and 1 µM LOX-1. […] The spectrophotometric measurements at λ = 221 nm are associated with the conjugated double bonds formed from the linoleic acid substrate.

LOX-1 [4] = target: T1, LOX-1; experiment: Enzyme kinetics, mechanism of LOX-1 inhibition; format: biochemical, soybean (Glycine max)
Protocol: as §1

[5] = LOX-1 1 µM, linoleic acid substrate, pH 8.0, 25 °C, mean and standard deviation of three independent experiments, read-out: IC50 for the inhibition of lipoxygenase-1

oxygen consumption during LOX-1 catalysis (LOX-1 [1]): lower rate of oxygen consumption
SMILES: CC(Cc1ccc(O)c(O)c1)C(C)Cc1ccc(O)c(O)c1 (stereo not shown) [Nordihydroguaiaretic acid (NDGA), Nordihydroguaiaretic acid, reference compound]
toxicity on long-term use [2]: liver damage and kidney dysfunction

IC50 [3, 5]: > 50 µM
SMILES: CC(C)=CCOc1ccccc1/C=C/C(=O)c1ccccc1 [Compound 4, 2-O-prenyl chalcone]

SMILES: O=C(/C=C/c1ccc(O)cc1)c1ccccc1 [Compound 3, (E)-4-hydroxychalcone]
IC50 [3]: > 50 µM

IC50 [3, 5]: > 50 µM
SMILES: O=C(/C=C/c1cccc(O)c1)c1ccccc1 [Compound 2]

IC50 [3, 5]: 5.7 ± 0.8 µM
fold more potent in LOX-1 inhibition than 2-O-prenyl chalcone (4) ([3]; ratio of IC50 values, versus compound 4): > 10 fold
oxygen consumption during LOX-1 catalysis (LOX-1 [1]; listed as (E)-2-O-farnesyl chalcone): decreased the rate of oxygen consumption
mechanism of inhibition (LOX-1 [4]; LOX-1, enzyme kinetics): competitive
Ki (LOX-1 [4]; increasing concentrations of 6 (5–10 µM), linoleic acid substrate): 7 µM
SMILES: CC(C)=CCC/C(C)=C/CC/C(C)=C/COc1ccccc1/C=C/C(=O)c1ccccc1 [Compound 6, (E)-2-O-farnesyl chalcone]
oxygen consumption during LOX-1 catalysis (LOX-1 [1]): delay of the oxygen consumption; also recorded: lower rate of oxygen consumption

IC50 [3, 5]: > 50 µM
SMILES: O=C(/C=C/c1ccccc1O)c1ccccc1 [Compound 1]

IC50 [3, 5]: 11.8 ± 0.9 µM
SMILES: CC(C)=CCC/C(C)=C/COc1cccc(/C=C/C(=O)c2ccccc2)c1 [Compound 5, 3-O-geranyl chalcone]
